For two molecules, IC50 results are on record in patent US5196438A, “Amino acid derivatives” (Hoffmann-La Roche Inc., priority 1989, dated 1993).

In assay [1] the test system is HTLV-III (strain RF) grown in C8166 cells. Description: Activity against HIV (p24 antigen capture assay in infected C8166 cells). Format: cell-based. To be noted: Human immunodeficiency virus 1, concentration that produces 50% protection, 72 hours, viral protein 24 antigen capture, read-out: I50 Activity against HIV. The procedure: This assay uses HTLV-III (strain RF) grown in C8166 cells (a human CD4^+ T lymphoblastoid line) using RPM1 1640 medium with bicarbonate buffer, antibiotics and 10% fetal bovine serum.
A suspension of cells is infected with ten times the TCD50 of virus and adsorption allowed to proceed for 90 minutes at 37° C. The cells are washed three times with medium. The test is carried out in 6 ml tissue culture tubes, each tube containing 2×10^5 infected cells in 1.5 ml of medium. Test compounds are dissolved in either aqueous medium or dimethyl sulphoxide, according to solubility, and a 15 μl solution of the substance added. The cultures are incubated at 37° C. for 72 hours in a humidified atmosphere containing 5% carbon dioxide in air. The cultures are then centrifuged and an aliquot of the supernatant solubilized with Nonidet P40 and subjected to an antigen capture assay which uses a primary antiserum with particular reactivity against the viral protein 24 and a horseradish peroxidase detection system. Color generation is measured spectrophotometrically and plotted against the concentration of test substance. The concentration that produces 50% protection is determined. (I50).

A further assay has as its target HIV protease (Human immunodeficiency virus type 1 group M subtype B, UniProt P04585). Description: In vitro inhibition of HIV protease (spectrophotometric assay of N-terminal proline from peptide substrate cleavage). Format: biochemical. To be noted: citrate buffer pH 5.5, 37° C. The procedure:
HIV protease was expressed in E. coli and partially purified from soluble extracts of the bacterium by ammonium sulphate fractionation (0-30%). […] Cleavage of the substrate was quantified by measuring the production of H-Pro-Ile isobutylamide by the spectrophotometric assay of N-terminal proline.
1.25 mM of substrate were dissolved in 125 mM of citrate buffer (pH 5.5) containing 0.125 mg/ml of Tween 20. […] The solution was heated in a water bath and then the pigmented residues were re-dissolved in 1 ml of 1% pyrogallol in 33% water in acetone (wt./vol./vol.). The optical density of the solution was measured spectrophotometrically at 599 nm.

Like-named read-outs stand apart in the source and are kept apart here. Where only a bound is given, the exact number is not on record here.

On to `CC(C)(C)NC(=O)[C@@H]1C[C@@H]2CCCC[C@@H]2CN1C[C@@H](O)[C@H](Cc1ccccc1)NC(=O)[C@H](CC(N)=O)NC(=O)c1ccc2ccccc2n1` [2-Quinolylcarbonyl, N-tert.butyl-decahydro-2-[2(R)-hydroxy-4-phenyl-3(S)-[[N-(2-quinolylcarbonyl)-L-asparaginyl]amino]butyl]-(4aS,8aS)-isoquinoline-3(S)-carboxamide], for which, in assay [1], the IC50 came to 2 nM.

With `CC(C)(C)NC(=O)[C@@H]1C[C@@H]2CCCC[C@@H]2CN1C[C@@H](O)[C@H](Cc1ccccc1)NC(=O)[C@H](CC(N)=O)NC(=O)OCc1ccccc1` [Benzyloxycarbonyl, 2-[3(S)-[[N-(benzyloxycarbonyl)-L-asparaginyl]amino]-2(R)-hydroxy-4-phenylbutyl]-N-tert.butyl-decahydro-(4aS,8aS)-isoquinoline-3(S)-carboxamide], the IC50 is below 24 nM at HIV protease (substrate S^1: succinyl-Ser-Leu-Asn-Tyr-Pro-Ile isobutylamide, read-out: I50 Inhibition of HIV protease, S^1); below 2.7 nM on HIV protease (substrate S^2: succinyl-Val-Ser-Gln-Asn-Phe-Pro-Ile isobutylamide, read-out: I50 Inhibition of HIV protease, S^2); 20 nM in assay [1].
